The text below walks through data of patent publication US20170298438A1, “DETECTION AND TREATMENT OF BREAST CANCER” (The European Molecular Biology Laboratory, priority 2011, published 2017).

Holding throughout (assay type): cell-based, human
For data set [1], the system named is HeLa Kyoto cells. Description: H3S10ph immuno-labelling of synchronised HeLa Kyoto cells. The note with it: thymidine double block, BI2536 at 5 μM. As to the method:
HeLa Kyoto cells were synchronised in S phase by a double thymidine block (Sigma). Briefly, a final concentration of 3 mM thymidine was added to the culture medium for 18 h, followed by release into fresh culture medium for 9 h and a second block with 3 mM thymidine for 17 h. […] Cell synchronisation was confirmed by flow cytometry. For immunofluorescence, HeLa Kyoto cells were grown on coverslips (12 mm #1 VWR International) and synchronised as described above. The synchronised cells were rinsed in PBS, fixed in 1% PFA, permeabilised with 0.1% Triton X-100/0.02% SDS, and blocked in 2% BSA. After the blocking step, phosphohistone H3 (H3S10ph) antibody was applied for 1 h at a dilution of 1/500 and after three washes with PBS, Alexa Fluor 594 antibody was added at a dilution of 1/300 for 1 h. Coverslips were washed three times in PBS and mounted with Vectashield non-fade DAPI (Vector Laboratories).

Data set [2] has as its system T47D cells. Description: H3S10ph immuno-staining, mitotic phase distribution in T47D cells. Also noted: reduction of the proportion of mitotic T47D cells in prophase/prometaphase: dose or concentration left out as unconfirmed. The protocol:
(§1) To prepare cell monolayers, 0.5×10^6 cells were cytospun onto glass slides at 800×g for 5 min using a Cytospin 4 cytocentrifuge (Thermo Scientific), air dried and fixed in 4% neutral buffered formalin overnight.
Section deparaffinisation, antigen retrieval and immuno-staining were performed using the Bond III Autostainer and Bond Polymer Refine Detection kit (Leica) according to the manufacturer's instructions. Heat-mediated antigen retrieval and proteolytic digestion were used for H3S10ph and PAPPA antigens, respectively. Primary antibodies were applied for 40 min at the following dilutions: PAPP-A at 1/200; H3S10ph at 1/4000. Cytospin preparations were immuno-stained using the same protocol without the deparaffinisation step. Incubation without primary antibody was used as a negative control and sections of tonsil and placenta were used as positive controls for H3S10ph and PAPPA antibodies, respectively.
Two consecutive serial sections from each tissue sample and two cytospin preparations for each cell line were immuno-stained for H3S10ph for analysis of mitotic phase distribution. […]
PAPPA and ZMPSTE24 (control) are zinc-dependent metalloproteinases of the metzincin superfamily. […] PAPPA and ZMPSTE24 expression levels were determined by qRT-PCR and western blot. […]

The test system of data set [3] is BT549 cells. The data set can be described thus: H3S10ph immuno-labelling, mitotic phase distribution in BT549 cells. The note with it: BT549 cytospin preparations. As to the method: as §1
Section deparaffinisation, antigen retrieval and immuno-staining were performed using the Bond III Autostainer and Bond Polymer Refine Detection kit (Leica) according to the manufacturer's instructions. Heat-mediated antigen retrieval and proteolytic digestion were used for H3S10ph and PAPPA antigens, respectively. Primary antibodies were applied for 40 min at the following dilutions: PAPP-A at 1/200; H3S10ph at 1/4000. Cytospin preparations were immuno-stained using the same protocol without the deparaffinisation step. […]
PAPPA was silenced by RNAi with a specific RNA duplex targeting PAPPA mRNA (Ambion s10042; sense 5′-GAGCCUACUUGGAUGUUAAtt-3′ (SEQ ID NO. 37) and antisense 5′-UUAACAUCCAAGUAGGCUCtg-3′ (SEQ ID NO. 38) or, alternatively, a pool of duplexes (ON-TARGETpIus SMARTpooI, Dharmacon). Non-targeting siRNA (Stealth RNAi Negative Control Med GC, Invitrogen) was used as negative control. All transfections were performed with Lipofectamine 2000 (Invitrogen). PAPPA siRNA at 100 nM final concentration was used to achieve efficient knock-down. Cells were harvested at the indicated time points post-transfection. Knock-down efficiency was assessed by qRT-PCR and/or Western blot. […]

`CC[C@@H]1C(=O)N(C)c2cnc(Nc3ccc(C(=O)NC4CCN(C)CC4)cc3OC)nc2N1C1CCCC1` [BI2536]: the “phosphohistone H3 (H3S10ph) detection in synchronised cells” value in data set [1] is “enrichment of prometaphase cells”.
Same read-out and setting: for `Cc1cn([C@H]2C[C@H](O)[C@@H](CO)O2)c(=O)[nH]c1=O` [thymidine] the value was “not detected”.
Take “IGF-1: recombinant Human IGF-1 (IMR-233, Imgenex); IGF receptor agonist”: the “effect on mitotic delay phenotype in T47D cells” value in data set [2] (T47D cells (PAPPA promoter methylated)) is given as “reverses the mitotic delay phenotype”. Further, the “reduction of the proportion of mitotic T47D cells in prophase/prometaphase” value in data set [2] (recombinant human IGF-1, harvested 24 h later, cells serum starved 48 h, versus control) is recorded as “approximately one half”.
With “siRNA-42: single RNA duplex targeting PAPPA mRNA, Ambion s10042 (SEQ ID NO. 37 and 38) (chain 1 GAGCCUACUUGGAUGUUAA; chain 2 UUAACAUCCAAGUAGGCUC; listed as RNA, chemistry not given here)”, the “mitotic phase phenotype in BT549 cells” value in data set [3] is recorded as “prophase/prometaphase delay phenotype”.
